Earlier results, collected in patent publication US20260048031A1, “POLYMORPHS OF CO-CRYSTALS OF ITANAPRACED AND NICOTINAMIDE” (CereSpir Incorporated, priority 2024, published 2026).
“Also recorded” adds a separate entry of the source.

Tests used:
[1] = system: transgenic Alzheimer's mouse models; conditions: Imbimbo, 2007, 2009; Lanzillotta 2011
[2] = in vivo
[3] = system: mouse models of Parkinson's Disease; conditions: manuscript submitted
[4] = system: rat traumatic brain injury model
[5] = system: Juvenile Batten disease; conditions: unpublished
[6] = system: patients with mild cognitive impairment (MCI); conditions: listed as itanapraced

O=C(O)C1(c2ccc(-c3ccc(Cl)c(Cl)c3)c(F)c2)CC1 [CSP-1103, 1-(3′,4′-dichloro-2-fluoro[1,1′-biphenyl]-4-yl)-cyclopropanecarboxylic acid]
effects in transgenic Alzheimer's mouse models [1]: numerous beneficial effects | penetration into the brain [2]: substantial | plasma half-life [2]: long | oral bioavailability ([2]; po): good | effects in mouse models of Parkinson's Disease [3]: numerous beneficial effects | effects in rat traumatic brain injury model ([4]; Lin et al., 2017): numerous beneficial effects | accumulation of hypertrophic microglia in the injured brain ([4]; rats after TBI (Li 2017)): prevented | acute lung injury ([4]; rats after TBI (Li 2017)): attenuated | neurological injury ([4]; rats after TBI (Li 2017)): attenuated | effects in mouse models of Juvenile Batten disease [5]: numerous beneficial effects | TNF-α (neuroinflammatory mediator) ([6]; CSF / brain, MCI patients): beneficial dose-related CSF differences; also recorded: dose-related statistically significant reductions | soluble CD40 ligand (neuroinflammatory mediator) ([6]; CSF / brain, MCI patients): beneficial dose-related CSF differences; also recorded: dose-related statistically significant reductions | total tau (marker of neurodegeneration) ([6]; CSF / brain, MCI patients): beneficial dose-related CSF differences; also recorded: dose-related statistically significant reductions | cognitive function throughout the duration of the trial ([6]; MCI patients): stable cognition; also recorded: stable cognitive function | safety and tolerability ([6]; Phase 1 studies and Phase 2 in MCI, treated up to two years): good safety and tolerability; also recorded: well tolerated
